The results in this text go back to ChEMBL document CHEMBL1201862, “PubChem BioAssay data set” (2004).

One may read the IC50 as the concentration needed to halve the response being measured. A word on the CC50: it is the concentration that lowers cell viability or growth by half. Usually AC50 stands for the concentration at which the activity in the assay is half-maximal. A word on the EC50: it is the concentration that produces a half-maximal response.

Assay [1] has as its target Glucose-6-phosphate 1-dehydrogenase (Homo sapiens, UniProt P11413). In words: inhibition of Homo sapiens G6PD, dose series – biochemical, fluorescence, selectivity assay for P. falciparum G6PD inhibitor project, dose response (AID 504792). It counts as functional.
In the next assay the test system is Vero. In words: viability of Vero cells under compound – cytotoxicity control for flavivirus capping enzyme inhibitors (AID 588742). To be noted: Chlorocebus sabaeus. Type of assay: functional.
Assay [2] deals with Heat shock 70 kDa protein 1A (Homo sapiens, UniProt P0DMV8). In words: small molecules displacing fluorescent ligand from Hsp70 – biochemical, fluorescence polarization, primary screen (AID 583).
Heat shock 70 kDa protein 1A, sequence (P0DMV8 whole entry): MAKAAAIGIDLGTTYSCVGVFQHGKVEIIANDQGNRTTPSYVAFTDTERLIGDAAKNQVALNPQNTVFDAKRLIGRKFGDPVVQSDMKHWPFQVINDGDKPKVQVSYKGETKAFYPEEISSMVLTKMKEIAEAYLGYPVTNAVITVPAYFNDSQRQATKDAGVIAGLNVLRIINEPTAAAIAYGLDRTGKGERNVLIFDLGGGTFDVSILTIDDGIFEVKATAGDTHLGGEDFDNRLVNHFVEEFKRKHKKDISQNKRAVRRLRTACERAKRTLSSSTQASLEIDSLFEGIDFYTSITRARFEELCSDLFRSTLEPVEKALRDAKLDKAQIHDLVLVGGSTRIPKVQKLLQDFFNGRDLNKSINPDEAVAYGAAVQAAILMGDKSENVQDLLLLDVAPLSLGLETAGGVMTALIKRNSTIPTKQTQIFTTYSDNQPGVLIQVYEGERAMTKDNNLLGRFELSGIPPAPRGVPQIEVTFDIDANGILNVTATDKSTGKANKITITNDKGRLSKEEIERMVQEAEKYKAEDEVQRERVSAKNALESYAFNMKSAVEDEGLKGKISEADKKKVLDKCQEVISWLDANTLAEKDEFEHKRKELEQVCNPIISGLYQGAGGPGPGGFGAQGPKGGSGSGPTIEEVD
Assay [3] has as its target T1, Calpain-2 catalytic subunit (Sus scrofa, UniProt P43367).
T1 sequence (P43367 whole entry): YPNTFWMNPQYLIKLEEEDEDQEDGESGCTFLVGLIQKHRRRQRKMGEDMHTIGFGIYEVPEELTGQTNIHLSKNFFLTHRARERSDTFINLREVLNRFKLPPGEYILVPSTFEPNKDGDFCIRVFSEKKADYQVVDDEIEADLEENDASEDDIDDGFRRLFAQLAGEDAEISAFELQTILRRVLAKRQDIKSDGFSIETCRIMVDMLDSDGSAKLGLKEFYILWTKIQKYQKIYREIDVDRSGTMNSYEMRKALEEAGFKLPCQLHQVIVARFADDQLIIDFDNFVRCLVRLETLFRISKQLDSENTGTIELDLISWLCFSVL
As to the kind of experiment: m-calpain protease blockers, concentration series – biochemical, fluorogenic peptide substrate, dose response (AID 1420). Type of assay: functional.

Assay [4] in a line: cytotoxicity toward HCT116 cells – cell-based, CellTiter-Glo luminescence, IC50, dose response (AID 1117332). It counts as functional. To be noted: HCT-116.
A short description of assay [5]: SNU-C1 cell viability reduction, dose response, CellTiter-Glo luminescence (AID 1117323). It counts as functional, cell-based. (In general: In ATP-based viability assays light output follows the ATP content of the culture.)
For assay [6], the target named is T2, Microphthalmia-associated transcription factor (Homo sapiens, UniProt O75030).
T2 sequence (O75030 whole entry): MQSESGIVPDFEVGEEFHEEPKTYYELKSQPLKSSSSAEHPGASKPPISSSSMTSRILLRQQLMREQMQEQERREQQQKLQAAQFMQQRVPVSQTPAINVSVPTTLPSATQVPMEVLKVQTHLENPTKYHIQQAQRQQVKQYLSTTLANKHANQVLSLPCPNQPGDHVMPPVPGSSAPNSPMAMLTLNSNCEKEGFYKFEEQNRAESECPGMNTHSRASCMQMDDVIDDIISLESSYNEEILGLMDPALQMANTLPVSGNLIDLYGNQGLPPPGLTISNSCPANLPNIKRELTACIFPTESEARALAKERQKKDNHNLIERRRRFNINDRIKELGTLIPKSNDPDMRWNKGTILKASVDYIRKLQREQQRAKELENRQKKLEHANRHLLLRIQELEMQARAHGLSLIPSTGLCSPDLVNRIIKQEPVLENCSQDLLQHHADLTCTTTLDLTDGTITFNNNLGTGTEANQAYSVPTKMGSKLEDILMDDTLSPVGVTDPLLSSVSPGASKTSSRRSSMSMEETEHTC
As to the kind of experiment: reducers of TRPM1 reporter luminescence, concentration series – cell-based, SK-MEL-5, cherry-picked, set 3, MITF inhibitor project, dose response (AID 493073).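 Also: SK-MEL-5 melanoma cells with luciferase driven by the MITF target TRPM1 promoter.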 It counts as functional.

The target of assay [7] is T3, Ubiquitin-conjugating enzyme E2 N (Homo sapiens, UniProt P61088).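 Also: Dose-response confirmation in a TR-FRET assay detecting UBC13-driven polyubiquitin chain formation, inhibition measured.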
T3 sequence (P61088 whole entry): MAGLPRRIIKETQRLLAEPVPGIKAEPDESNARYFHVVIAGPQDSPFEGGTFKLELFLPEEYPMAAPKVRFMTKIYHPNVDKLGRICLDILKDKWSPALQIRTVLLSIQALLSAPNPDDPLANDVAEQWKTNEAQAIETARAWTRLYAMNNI
It counts as functional.

For assay [8], the target named is T4, Orexin/Hypocretin receptor type 1 (Homo sapiens, UniProt O43613).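 Also: antagonism measured against Orexin-A challenge at about its EC80.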
T4 sequence (O43613 whole entry): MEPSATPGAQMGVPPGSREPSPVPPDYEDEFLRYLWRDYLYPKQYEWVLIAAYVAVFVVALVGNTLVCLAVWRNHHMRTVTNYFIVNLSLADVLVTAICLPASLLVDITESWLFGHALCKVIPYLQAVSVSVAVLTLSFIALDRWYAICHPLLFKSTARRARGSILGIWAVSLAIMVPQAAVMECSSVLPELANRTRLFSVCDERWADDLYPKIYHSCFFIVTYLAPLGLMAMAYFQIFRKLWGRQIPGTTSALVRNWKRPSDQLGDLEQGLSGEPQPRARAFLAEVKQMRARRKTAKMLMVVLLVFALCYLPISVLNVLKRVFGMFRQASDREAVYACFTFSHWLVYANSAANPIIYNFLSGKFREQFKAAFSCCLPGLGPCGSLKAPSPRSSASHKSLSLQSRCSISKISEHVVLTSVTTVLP
As to the kind of experiment: Homogeneous Time Resolved Fluorescence (HTRF)-based cell-based high throughput dose response assay for antagonists of the orexin 1 receptor (OX1R; HCRTR1). [Related pubchem assays (depositor defined):AID434989, AID435008, AID463079, AID485270, AID492963, AID492964, AID492965, AID493232, AID504717, AID504718]. Type of assay: functional. A general note: TR-FRET usually uses a lanthanide donor and a delayed reading to cut background.

In the next assay the target is T5, Orexin receptor type 2 (Homo sapiens, UniProt O43614).
T5 sequence (O43614 whole entry): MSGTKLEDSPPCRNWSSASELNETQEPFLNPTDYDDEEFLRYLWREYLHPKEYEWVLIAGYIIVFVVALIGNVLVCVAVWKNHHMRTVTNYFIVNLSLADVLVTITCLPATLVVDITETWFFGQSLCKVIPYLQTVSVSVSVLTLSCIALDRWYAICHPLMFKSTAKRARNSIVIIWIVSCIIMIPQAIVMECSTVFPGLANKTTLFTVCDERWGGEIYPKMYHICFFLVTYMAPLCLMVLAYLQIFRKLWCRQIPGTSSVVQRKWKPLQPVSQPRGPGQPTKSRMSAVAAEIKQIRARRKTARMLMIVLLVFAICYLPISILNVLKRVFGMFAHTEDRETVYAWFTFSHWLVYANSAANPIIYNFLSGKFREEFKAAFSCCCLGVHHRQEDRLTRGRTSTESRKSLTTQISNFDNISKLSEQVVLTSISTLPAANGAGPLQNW
As to the kind of experiment: Counterscreen assay for antagonists of the orexin 1 receptor (OX1R; HCRTR1): Homogeneous Time Resolved Fluorescence (HTRF)-based cell-based dose response assay for antagonists of the orexin 2 receptor (OX2R; HCRTR2), run by assay provider. It counts as functional.

The next assay in a line: cells. It counts as functional, cell-based.
In the next assay the test system is Jurkat. In words: SAR Analysis of small molecule inhibitors of T-cell specific antigen receptor-induced NF-kB activation in a Jurkat cell line using a luminescence assay - Set 2. [Related pubchem assays (depositor defined):AID435003, AID435012, AID465]. It counts as functional, cell-based. The following applies: Homo sapiens.
Assay [9] is described as follows: loss of viability in HepG2 cells – cell-based, CellTiter-Glo, cherry-picked, cytotoxicity control for Shn3 inhibitor project, dose response (AID 624134). Type of assay: functional.

The structures appear in SMILES notation. The source made the active and inactive calls. A value given as a limit tells only on which side of the number the result lay.

Glucose-6-phosphate 1-dehydrogenase, sequence (P11413 whole entry): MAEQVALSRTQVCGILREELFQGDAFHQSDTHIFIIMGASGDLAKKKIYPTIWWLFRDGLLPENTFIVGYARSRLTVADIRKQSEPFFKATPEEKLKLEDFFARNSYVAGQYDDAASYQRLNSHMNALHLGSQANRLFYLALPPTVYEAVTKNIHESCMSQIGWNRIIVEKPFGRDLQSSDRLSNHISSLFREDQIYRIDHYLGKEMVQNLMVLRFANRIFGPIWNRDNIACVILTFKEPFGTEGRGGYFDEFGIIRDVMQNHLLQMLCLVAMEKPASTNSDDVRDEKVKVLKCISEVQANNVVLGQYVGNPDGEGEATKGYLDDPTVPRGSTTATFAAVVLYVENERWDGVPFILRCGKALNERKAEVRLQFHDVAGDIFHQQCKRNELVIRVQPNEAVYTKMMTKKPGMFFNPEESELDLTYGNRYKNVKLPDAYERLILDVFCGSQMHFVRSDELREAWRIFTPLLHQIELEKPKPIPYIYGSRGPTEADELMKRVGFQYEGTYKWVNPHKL

As to `CCc1ccc(S(=O)(=O)Nc2cc(SCC(=O)O)c(O)c3ccccc23)cc1`, the IC50 in assay [1] is 50 µM (inactive). Also, the half-maximal cytotoxic concentration (CC50) in the assay with Vero is 33.6 µM (active).
As for `Oc1c(Cl)cc(Cl)c(Cl)c1Cc1c(O)c(Cl)cc(Cl)c1Cl` [HEXACHLOROPHENE], the concentration for half-maximal inhibition (IC50) is 19.5 µM (active) in assay [2], 3.73 µM (active) in assay [3], 0.0312 µM (active) in [4] and 0.032 µM (active) in assay [5].
As for `CC1(C)Cc2ccccc2C2=NNC(=O)C2=N1`, in [6], the AC50 is 3.62 µM (active).
Turning to `Oc1ccc(NC(=S)N=Nc2c(O)[nH]c3ccccc23)cc1`, the IC50 in [7] is 2.17 µM (active); in assay [8], 3.24 µM (active); at Orexin receptor type 2 it was > 50 µM (inactive).
On to `CCCC(=O)NC(c1ccc(C(C)C)cc1)c1ccc2cccnc2c1O` (stereo not drawn), for which the concentration for a half-maximal effect (EC50) in “cells” is 3.8 µM (active). Also, in the assay with Jurkat, the half-maximal inhibitory concentration (IC50) is 2.58 µM (active). In addition, in assay [9], the half-maximal activity concentration (AC50) is 1.91 µM (active).
